Assays:
[1] = molecular target: T1, ABL P210WT BAF3 cells (Homo sapiens, UniProt P00519); test: 96-well XTT cell survival assay, BaF3 ABL P210WT; assay type: cell-based; conditions: ABL P210 WT, 72 hours, read-out: CELL BIO ABL P210WT BAF3 XTT (IC50)
T1 construct: ABL P210WT BAF3; fused on or other part: P11274 (Breakpoint cluster region protein)
Description: (§1) MV4-11 and THP cells were maintained in Iscove's Modified Dulbecco's Medium supplemented with 10% fetal bovine serum (FBS) and penicillin/streptomycin, Ba/F3 cells were maintained in RPMI 1640 supplemented with 10% FBS, penicillin/streptomycin and 5 ng/ml recombinant mouse IL-3.
(§2) Compounds were tested in the following assays in duplicate.
(§3) 96-well XTT assay: Cells (e.g. BaF3 315I, M3511, or E255K cells) were grown in growth media containing various concentrations of compounds (duplicates) on a 96-well plate for 72 hours at 37° C. The starting cell number was 5000-8000 cells per well and volume was 120 μl. At the end of the 72-hour incubation, 40 μl of XTT labeling mixture (50:1 solution of sodium 3′-[1-(phenylamino-carbonyl)-3,4-tetrazolium]-bis(4-methoxy-6-nitro) benzene sulfonic acid hydrate and Electron-coupling reagent: PMS (N-methyl dibenzopyrazine methyl sulfate) were added to each well of the plate. After an additional 2-6 hours of incubation at 37° C., the absorbance reading at 405 nm with background correction at 650 nm was measured with a spectrophotometer.

[2] = molecular target: T2, purified and unphosphorylated T315I Abl kinase domain (ABL_T315I_0P) (Mus musculus, UniProt P00520, T315I); test: c-Abl T315I (unphosphorylated kinase domain) pyruvate kinase/lactate dehydrogenase coupled enzyme assay; assay type: biochemical; conditions: 10 μM ATP
T2 construct: The c-Abl T3151 KD (kinase domain) was purified as follows; Met-Ser-Leu (vector-derived residues) (N); made in house; host or cells: E. coli BL21(DE3) strains (Codon+RIL, or pSA0145 for the lambda phosphatase co-expression plasmid)
T2 sequence (P00520 242-493 T315I limits assumed): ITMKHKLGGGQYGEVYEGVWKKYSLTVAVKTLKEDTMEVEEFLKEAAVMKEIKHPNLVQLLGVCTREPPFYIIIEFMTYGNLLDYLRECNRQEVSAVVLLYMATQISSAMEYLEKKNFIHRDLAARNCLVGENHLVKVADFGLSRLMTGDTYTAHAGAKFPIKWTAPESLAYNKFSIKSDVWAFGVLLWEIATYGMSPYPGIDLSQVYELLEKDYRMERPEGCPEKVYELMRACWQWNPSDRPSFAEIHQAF
Description: Although the first of these examples uses the kinase domain of a mutant form of Abl T315I (“Abl T315I KD”), the kinase assays may use various forms of mutant and wild type enzymes, including, for example, the entire protein, the kinase domain, or a portion thereof (e.g. Abl Y393F). The kinases used in the assays may also be of varying phosphorylation states. In the c-Abl example, a mutant kinase at a zero phosphorylation state was used.
c-Abl Pyruvate Kinase/Lactate Dehydrogenase Coupled Enzyme Assay
In the c-Abl Pyruvate Kinase (PK)/Lactate Dehydrogenase (LDH) Coupled Assay the protein kinase dependant phosphorylation of a substrate peptide was coupled to the oxidation of NADH. The oxidation of NADH to NAD+ was detected by monitoring a decrease in absorbance at 340 nm.
Materials: Abl substrate peptide=EAIYAAPFAKKK-OH (SEQ ID NO: 1) (Biopeptide, San Diego, Calif.); […]NADH (Sigma Cat#N-8129, FW=709.4); 2M MgCl2; 1M HEPES buffer, pH 7.5; Phosphoenolpyruvate (PEP) (Sigma Cat#P-7002, FW=234); Lactate dehydrogenase (LDH) (Worthington Biochemical Cat#2756); Pyruvate Kinase (PK) (Sigma Cat#P-9136); ATP (Sigma Cat#A-3377, FW=551); Greiner 384-well UV star plate; and purified and unphosphorylated T3151 Abl kinase domain.
Stock Solutions: 10 mM NADH (7.09 mg/ml in miliQH2O) made fresh daily; 10 mM Abl substrate peptide (13.4 mg/ml in miliQH2O) stored at −20° C.; 100 mM HEPES buffer, pH 7.5 (5 ml 1M stock+45 ml miliQH2O); 100mM MgCl2 (5 ml 2M MgCl2+95 ml dH2O); 100 mM PEP (23.4 mg/ml in dH2O) stored at −20° C.; 10mM ATP (5.51 mg/ml in dH2O) stored at −20° C. (diluted 50 μl into total of 10 ml miliQH2O daily=50 μM ATP working stock); 1000 U/ml PK (U/mg varies with lot) flash-frozen under liquid N2 and stored at −80° C.; and 1000 U/ml LDH (U/mg varies with lot) flash-frozen under liquid N2 and stored at −80° C.
Standard Assay Setup for 384-well format (50 μl reaction): 300 μM NADH; 10 mM MgCl2; 2 mM PEP; 45 U/ml PK; 60 U/ml LDH; 200 μM Abl substrate peptide; 2.5 μl test compound (in DMSO); 2 μg/ml Abl kinase domain; 10 μM ATP; 100 mM HEPES buffer. Positive controls contained DMSO with no test compound. Negative controls contained 5 μl of 0.5M EDTA (50 mM in the assay). The dephosphorylated form of the c-Abl T315I mutant was used in the biochemical screening assays. The kinase reaction was initiated at time t=0 by the addition of ATP.
Activity was measured by following the time-dependent loss of NADH by absorbance spectroscopy at 340 nm. The linear portion of the resulting progress curve was then analyzed by linear regression to get the activity in absorbance units/time, reported as the slope of that best fit line (moles/unit time can be calculated from using molar extinction coefficient for NADH at 340 nm, 6250M^−1 cm^−1).
Screening data was evaluated using the equation: Z′=1-[3*(σ++σ−)/|μ+−μ−|] (Zhang, et al., 1999 J Biomol Screening 4(2) 67-73), where μ denotes the mean and σ the standard deviation. The subscript designates positive or negative controls. The Z′ score for a robust screening assay should be ≧0.50. The typical threshold=μ+−3*σ+−. Any value that falls below the threshold was designated a “hit”.
Dose response was analyzed using the equation: y=min+{(max−min)/(1+10^[compound]−logIC50)}, where y is the observed initial slope, max=the slope in the absence of inhibitor, min=the slope at infinite inhibitor, and the IC50 is the [compound] that corresponds to ½ the total observed amplitude (Amplitude=max−min).
To measure modulation, activation, or inhibition of Abl KD, a test compound was added to the assay at a range of concentrations. Inhibitors may inhibit Abl KD activity at an IC50 in the micromolar range, the nanomolar range, or, for example, in the subnanomolar range.
An open-reading frame for c-Abl was amplified from a Mus musculus (mouse) cDNA library prepared from freshly harvested mouse liver using a commercially available kit (Invitrogen) by PCR using the following primers: […]
The c-Abl T3151 KD (kinase domain) was purified as follows. […]

[3] = molecular target: T3, ABL T315I BAF3 cells (Homo sapiens, UniProt P00519, T315I, cells depend on it); test: 96-well XTT cell survival assay, BaF3 ABL T315I; assay type: cell-based; conditions: 72 hours, read-out: CELL BIO ABL T315I BAF3 XTT (IC50)
T3 construct: ABL T315I BAF3; fused on or other part: P11274 (Breakpoint cluster region protein)
Description: as §1, §2, §3

| ABL_T315I_0P (IC50) [2] | SMILES | GI50 [1] [nM] | IC50 [2] [nM] | GI50 [3] [nM] |
| --- | --- | --- | --- | --- |
|  | COc1cc(Cl)c(F)cc1-c1c[nH]c2ncc(-c3cnc(N)c(C(=O)N(C)C)c3)cc12 | < 10 | < 10 | 10 to 100 |
| C (0.1-0.01 μM) | CN(C)C(=O)c1cc(-c2cnc3[nH]cc(-c4cc[nH]n4)c3c2Cl)cnc1N [2-Amino-5-[4-chloro-3-(1H-pyrazol-3-yl)-1H-pyrrolo[2,3-b]pyridin-5-yl]-N,N-dimethyl-nicotinamide] | > 1000 |  | > 1000 |
| D (<0.01 μM) | CN(C)C(=O)c1cc(-c2cnc3[nH]cc(-c4cccc(F)c4F)c3c2Cl)cnc1N [2-Amino-5-[4-chloro-3-(2,3-difluoro-phenyl)-1H-pyrrolo[2,3-b]pyridin-5-yl]-N,N-dimethyl-nicotinamide] | 100 to 1000 |  | 100 to 1000 |
| D (<0.01 μM) | CN(C)C(=O)c1cc(-c2cnc3[nH]cc(-c4cc(F)ccc4F)c3c2Cl)cnc1N [2-Amino-5-[4-chloro-3-(2,5-difluoro-phenyl)-1H-pyrrolo[2,3-b]pyridin-5-yl]-N,N-dimethyl-nicotinamide] | 10 to 100 |  | 100 to 1000 |
| D (<0.01 μM) | CCN(C)C(=O)c1cc(-c2cnc3[nH]cc(-c4cc(F)ccc4F)c3c2Cl)cnc1N [2-Amino-5-[4-chloro-3-(2,5-difluoro-phenyl)-1H-pyrrolo[2,3-b]pyridin-5-yl]-N-ethyl-N-methyl-nicotinamide] | 100 to 1000 |  | 100 to 1000 |
| D (<0.01 μM) | CN(C)C(=O)c1cc(-c2cnc3[nH]cc(-c4cc(F)ccc4Cl)c3c2Cl)cnc1N [2-Amino-5-[4-chloro-3-(2-chloro-5-fluoro-phenyl)-1H-pyrrolo[2,3-b]pyridin-5-yl]-N,N-dimethyl-nicotinamide] | 100 to 1000 |  | 100 to 1000 |
| D (<0.01 μM) | CN(C)C(=O)c1cc(-c2cnc3[nH]cc(-c4ccccc4F)c3c2Cl)cnc1N [2-Amino-5-[4-chloro-3-(2-fluoro-phenyl)-1H-pyrrolo[2,3-b]pyridin-5-yl]-N,N-dimethyl-nicotinamide] | 100 to 1000 |  | 100 to 1000 |
| D (<0.01 μM) | COc1ccc(C(F)(F)F)cc1-c1c[nH]c2ncc(-c3cnc(N)c(C(=O)N(C)C)c3)c(Cl)c12 [2-Amino-5-[4-chloro-3-(2-methoxy-5-trifluoromethyl-phenyl)-1H-pyrrolo[2,3-b]pyridin-5-yl]-N,N-dimethyl-nicotinamide] | 100 to 1000 |  | 100 to 1000 |
| D (<0.01 μM) | COc1ccccc1-c1c[nH]c2ncc(-c3ccc(N)c(C(=O)N(C)C)c3)c(Cl)c12 [2-Amino-5-[4-chloro-3-(2-methoxy-phenyl)-1H-pyrrolo[2,3-b]pyridin-5-yl]-N,N-dimethyl-benzamide] | < 10 |  | < 10 |
| D (<0.01 μM) | COc1ccccc1-c1c[nH]c2ncc(-c3cnc(N)c(C(=O)N(C)C)c3)c(Cl)c12 [2-Amino-5-[4-chloro-3-(2-methoxy-phenyl)-1H-pyrrolo[2,3-b]pyridin-5-yl]-N,N-dimethyl-nicotinamide] | < 10 |  | < 10 |
| D (<0.01 μM) | COc1ncccc1-c1c[nH]c2ncc(-c3cnc(N)c(C(=O)N(C)C)c3)c(Cl)c12 [2-Amino-5-[4-chloro-3-(2-methoxy-pyridin-3-yl)-1H-pyrrolo[2,3-b]pyridin-5-yl]-N,N-dimethyl-nicotinamide] | 10 to 100 |  | 10 to 100 |
| D (<0.01 μM) | CN(C)C(=O)c1cc(-c2cnc3[nH]cc(-c4ccc5c(c4)CC(=O)N5)c3c2Cl)cnc1N [2-Amino-5-[4-chloro-3-(2-oxo-2,3-dihydro-1H-indol-5-yl)-1H-pyrrolo[2,3-b]pyridin-5-yl]-N,N-dimethyl-nicotinamide] | 100 to 1000 |  | > 1000 |
| D (<0.01 μM) | CN(C)C(=O)c1cc(-c2cnc3[nH]cc(-c4cccc(F)c4)c3c2Cl)cnc1N [2-Amino-5-[4-chloro-3-(3-fluoro-phenyl)-1H-pyrrolo[2,3-b]pyridin-5-yl]-N,N-dimethyl-nicotinamide] | 100 to 1000 |  | 100 to 1000 |
| D (<0.01 μM) | CCN(C)C(=O)c1cc(-c2cnc3[nH]cc(-c4cccc(F)c4)c3c2Cl)cnc1N [2-Amino-5-[4-chloro-3-(3-fluoro-phenyl)-1H-pyrrolo[2,3-b]pyridin-5-yl]-N-ethyl-N-methyl-nicotinamide] | 10 to 100 |  | 10 to 100 |
| D (<0.01 μM) | COc1cc(F)c(F)cc1-c1c[nH]c2ncc(-c3cnc(N)c(C(=O)N(C)C)c3)c(Cl)c12 [2-Amino-5-[4-chloro-3-(4,5-difluoro-2-methoxy-phenyl)-1H-pyrrolo[2,3-b]pyridin-5-yl]-N,N-dimethyl-nicotinamide] | 10 to 100 |  | 10 to 100 |
| D (<0.01 μM) | COc1cc(Cl)ccc1-c1c[nH]c2ncc(-c3cnc(N)c(C(=O)N(C)C)c3)c(Cl)c12 [2-Amino-5-[4-chloro-3-(4-chloro-2-methoxy-phenyl)-1H-pyrrolo[2,3-b]pyridin-5-yl]-N,N-dimethyl-nicotinamide] | 10 to 100 |  | 10 to 100 |

From patent US8158647B2, “Substituted pyrrolopyridines and pyrazolopyridines as kinase modulators” (SGX Pharmaceuticals, Inc., priority 2007, dated 2012)
